Laboratory results as given in patent US4500520A, “Antiinflammatory and/or analgesic silylfurans” (E. I. Du Pont de Nemours and Company, priority 1983, dated 1985).
Like-named read-outs stand apart in the source and are kept apart here.

Tests used:
[1] = test system: phenylquinone-induced writhing; experiment: Phenylquinone writhing test; format: in vivo, mouse (female white); details: Mus musculus, read-out: Phenylquinone Writhing (PQW) ED50
Description: PHENYLQUINONE WRITHING TEST
A standard procedure for detecting and comparing the analgesic activity of compounds in this series for which there is a good correlation with human efficacy is the standard phenylquinone writhing test modified from Siegmund, et al., Proc. Soc. Exp. Biol. Med., 95, 729 (1957). A test compound suspended in 1% methylcellulose was given orally to fasted (17-21 hours) female white mice, 5-20 animals per double blind test. Aqueous (0.01% phenyl-p-benzoquinone) phenylquinone, 0.20 ml per mouse, was injected intraperitoneally 6 minutes before observations were begun. […] The effective analgesic dose for 50% of the mice (ED50) was calculated by the moving average method of Thompson, W. R., Bact. Rev., 11, 115-145 (1947); the time of peak activity was determined for many of the compounds. Data for some of the compounds are summarized in Table II together with data for some standard analgetic-antiinflammatory drugs.

[2] = test system: adjuvant-induced arthritis (paw volume, uninjected left hind paw); experiment: Established adjuvant-induced arthritis in rats; format: in vivo, rat (male Charles River Lewis); details: for Adjuvant Arthritis, percent reduction in paw volume at the indicated dose: at 27 mg/kg; for ED50: Rattus norvegicus, read-out: Adjuvant Arthritis ED50
[3] = oral, mice, effective analgesic dose for 50% of the mice, moving average method
[4] = oral, 7 daily doses, rats, effective dose for 50% decrease from control paw volume, read from dose-response line by inspection

Structure (SMILES)	ED50 ([1]; po) [mg/kg]	Adjuvant Arthritis, percent reduction in paw volume at the indicated dose ([2]; oral, 7 daily doses, rats) [%]	ED50 ([2]; po) [mg/kg]	ED50 [1, 3] [mg/kg]	ED50 [2, 4] [mg/kg]
Cc1ccc(-c2cc([Si](C)(C)C)oc2-c2ccc(Cl)cc2)cc1 [Example 5, 5-(4-Chlorophenyl)-4-(4-methylphenyl)-2-trimethylsilylfuran]	> 135	15			
C[Si](C)(C)c1cc(-c2ccc(F)cc2)c(-c2ccc(F)cc2)o1 [Example 1, 4,5-bis(4-Fluorophenyl)-2-trimethylsilylfuran]	39	32			
COc1ccc2c(c1)c(CC(=O)O)c(C)n2C(=O)c1ccc(Cl)cc1 [Indomethacin, reference compound]	0.35		0.3		
CSc1ccc(-c2cc([Si](C)(C)C)oc2-c2ccc(F)cc2)cc1 [Example 4, 5-(4-Fluorophenyl)-4-(4-methylthiophenyl)-2-trimethylsilylfuran]	> 135		> 27		
COc1ccc(-c2cc([Si](C)(C)C)oc2-c2ccc(OC)cc2)cc1 [Example 2, 4,5-bis(4-Methoxyphenyl)-2-trimethylsilylfuran]	2.3		2.5		
CCCCC1C(=O)N(c2ccccc2)N(c2ccccc2)C1=O [Phenylbutazone, reference compound]				80	10
CC(C)Cc1ccc(C(C)C(=O)O)cc1 (stereo not drawn) [Ibuprofen, reference compound]				10	100
CC(=O)Oc1ccccc1C(=O)O [Aspirin, reference compound]	135		305		
C[Si](C)(C)c1cc(-c2ccccc2)c(-c2ccccc2)o1 [Example 3, 4,5-Diphenyl-2-trimethylsilylfuran]	94	24			
